Experimental data published in article PMC7035247 (Scientific Reports, 2020).
Where two headings read alike, the source gives them in different places.

Assays:
[1] = molecular target: WL-Pgp (Trp-less Pgp, all eleven Trps substituted) (Mus musculus, UniProt P21447, W1104Y/W132L/W158Y/W208P/W228M/W311Y/W44H/W694I/W704I/W799Y/W851P); assay: biochemical
Protocol: (§1) The rate of ATP hydrolysis was measured at 37 °C, by an ATPase-linked enzyme assay, in the absence and presence of drugs, and statistical analysis were done as described[74],[79]. For biophysical studies, Pgp was exchanged into SEC buffer (20 mM HEPES pH 7.4, 150 mM NaCl, 10% glycerol, 0.05% DDM,) by size exclusion chromatography (SEC) on Superdex 200 (1 × 30 cm column)[85].

[2] = molecular target: WT Pgp (codon-optimized mouse mdr1a Pgp) (Mus musculus, UniProt P21447); assay: biochemical
Chain of WT Pgp (codon-optimized mouse mdr1a Pgp) (P21447 whole entry): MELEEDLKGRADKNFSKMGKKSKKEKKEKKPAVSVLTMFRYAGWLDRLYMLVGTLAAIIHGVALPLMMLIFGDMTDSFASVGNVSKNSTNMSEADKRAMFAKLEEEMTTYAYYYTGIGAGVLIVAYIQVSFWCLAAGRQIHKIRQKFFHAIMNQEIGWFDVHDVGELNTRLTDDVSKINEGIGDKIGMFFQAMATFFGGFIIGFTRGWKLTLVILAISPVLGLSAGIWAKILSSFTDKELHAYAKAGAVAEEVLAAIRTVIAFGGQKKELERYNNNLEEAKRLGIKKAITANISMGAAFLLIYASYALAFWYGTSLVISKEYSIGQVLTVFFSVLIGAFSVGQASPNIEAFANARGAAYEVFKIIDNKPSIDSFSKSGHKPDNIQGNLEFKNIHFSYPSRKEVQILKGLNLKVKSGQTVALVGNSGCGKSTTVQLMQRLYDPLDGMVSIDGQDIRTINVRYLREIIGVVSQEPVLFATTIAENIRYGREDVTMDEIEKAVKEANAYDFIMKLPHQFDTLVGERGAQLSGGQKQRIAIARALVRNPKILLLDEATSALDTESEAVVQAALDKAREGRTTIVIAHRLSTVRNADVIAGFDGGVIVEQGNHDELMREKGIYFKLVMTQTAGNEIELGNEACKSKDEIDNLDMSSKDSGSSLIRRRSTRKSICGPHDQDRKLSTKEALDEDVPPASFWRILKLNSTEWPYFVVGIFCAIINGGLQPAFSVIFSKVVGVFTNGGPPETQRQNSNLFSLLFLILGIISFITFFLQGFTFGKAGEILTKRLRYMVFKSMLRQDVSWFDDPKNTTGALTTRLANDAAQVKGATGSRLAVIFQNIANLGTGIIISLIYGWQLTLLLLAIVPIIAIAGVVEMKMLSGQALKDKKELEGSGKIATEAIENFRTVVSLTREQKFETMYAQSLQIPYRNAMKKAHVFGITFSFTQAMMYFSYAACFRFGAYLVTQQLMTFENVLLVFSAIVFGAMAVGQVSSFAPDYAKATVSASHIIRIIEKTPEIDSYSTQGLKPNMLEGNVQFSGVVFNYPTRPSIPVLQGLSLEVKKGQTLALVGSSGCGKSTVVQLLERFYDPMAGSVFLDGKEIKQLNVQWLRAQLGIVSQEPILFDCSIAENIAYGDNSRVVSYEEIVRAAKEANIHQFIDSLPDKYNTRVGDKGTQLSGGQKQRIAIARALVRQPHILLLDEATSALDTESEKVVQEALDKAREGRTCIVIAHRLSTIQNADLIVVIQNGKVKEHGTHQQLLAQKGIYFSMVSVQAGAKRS
Protocol: as §1

[3] = molecular target: T1, W(3Cyto) Pgp (W44H/W132L/W208P/W228M/W311Y/W694I/W704I/W851P) (Mus musculus, UniProt P21447, W132L/W208P/W228M/W311Y/W44H/W694I/W704I/W851P); assay: biochemical
T1 sequence (P21447 whole entry W44H/W132L/W208P/W228M/W311Y/W694I/W704I/W851P): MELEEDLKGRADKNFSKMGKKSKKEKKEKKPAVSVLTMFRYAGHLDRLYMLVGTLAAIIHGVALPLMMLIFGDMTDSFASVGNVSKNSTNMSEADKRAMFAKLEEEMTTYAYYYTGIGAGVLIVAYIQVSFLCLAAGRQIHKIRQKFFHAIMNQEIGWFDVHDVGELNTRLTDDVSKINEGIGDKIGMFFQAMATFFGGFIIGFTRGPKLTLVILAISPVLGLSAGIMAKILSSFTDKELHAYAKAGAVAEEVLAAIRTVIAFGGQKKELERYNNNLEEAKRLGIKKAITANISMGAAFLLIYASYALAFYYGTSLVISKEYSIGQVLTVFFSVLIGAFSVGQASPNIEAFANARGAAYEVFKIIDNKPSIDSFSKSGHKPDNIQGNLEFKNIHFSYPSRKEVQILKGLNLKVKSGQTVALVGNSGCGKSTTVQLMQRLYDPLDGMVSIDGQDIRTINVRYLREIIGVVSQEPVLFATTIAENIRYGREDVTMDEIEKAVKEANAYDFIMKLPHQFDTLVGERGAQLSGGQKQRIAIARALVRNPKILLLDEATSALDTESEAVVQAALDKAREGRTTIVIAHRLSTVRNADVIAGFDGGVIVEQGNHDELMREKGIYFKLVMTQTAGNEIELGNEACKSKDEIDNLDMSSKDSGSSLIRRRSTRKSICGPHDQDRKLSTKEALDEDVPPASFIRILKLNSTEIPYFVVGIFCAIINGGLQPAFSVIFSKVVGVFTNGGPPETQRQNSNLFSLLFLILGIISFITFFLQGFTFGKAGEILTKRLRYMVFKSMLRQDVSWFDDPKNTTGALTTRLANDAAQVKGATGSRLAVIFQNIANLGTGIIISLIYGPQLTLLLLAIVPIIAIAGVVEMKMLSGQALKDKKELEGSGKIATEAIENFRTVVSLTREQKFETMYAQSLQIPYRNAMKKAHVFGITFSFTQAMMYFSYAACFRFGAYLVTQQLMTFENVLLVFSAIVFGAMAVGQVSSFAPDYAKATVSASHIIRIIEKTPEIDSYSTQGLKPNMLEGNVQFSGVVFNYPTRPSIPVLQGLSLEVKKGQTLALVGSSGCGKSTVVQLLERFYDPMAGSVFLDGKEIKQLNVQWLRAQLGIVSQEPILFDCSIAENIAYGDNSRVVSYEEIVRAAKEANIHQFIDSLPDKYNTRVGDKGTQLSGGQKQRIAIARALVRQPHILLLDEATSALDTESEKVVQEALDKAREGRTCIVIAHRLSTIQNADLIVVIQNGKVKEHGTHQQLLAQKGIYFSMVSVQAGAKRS
Protocol: (§2) The rate of ATP hydrolysis was measured at 37 °C, by an ATPase-linked enzyme assay[87], in the absence and presence of drugs, and statistical analysis were done as described[74],[79].

[4] = molecular target: T1, W(3Cyto) Pgp (W44H/W132L/W208P/W228M/W311Y/W694I/W704I/W851P); details: read-out: Km(MgATP), in the presence of 30 μM verapamil
Protocol: as §2

[5] = tested on: S. cerevisiae JPY201 expressing Pgp variants; details: 30 µM doxorubicin
Protocol: Cultures of the transformants were screened again for mating efficiency. […] DNA from the 72 unique mutants was again re-transformed into JPY201 yeast cells for more detailed in vivo functional analysis of fungicidal drug resistance and yeast mating efficiency, which were performed essentially as previously described[74],[79],[84].

[6] = EC50 (concentration required for 50% stimulation of the ATPase activity), WT Pgp, mean ± SD

Chain of WL-Pgp (Trp-less Pgp, all eleven Trps substituted) (P21447 whole entry W44H/W132L/W158Y/W208P/W228M/W311Y/W694I/W704I/W799Y/W851P/W1104Y): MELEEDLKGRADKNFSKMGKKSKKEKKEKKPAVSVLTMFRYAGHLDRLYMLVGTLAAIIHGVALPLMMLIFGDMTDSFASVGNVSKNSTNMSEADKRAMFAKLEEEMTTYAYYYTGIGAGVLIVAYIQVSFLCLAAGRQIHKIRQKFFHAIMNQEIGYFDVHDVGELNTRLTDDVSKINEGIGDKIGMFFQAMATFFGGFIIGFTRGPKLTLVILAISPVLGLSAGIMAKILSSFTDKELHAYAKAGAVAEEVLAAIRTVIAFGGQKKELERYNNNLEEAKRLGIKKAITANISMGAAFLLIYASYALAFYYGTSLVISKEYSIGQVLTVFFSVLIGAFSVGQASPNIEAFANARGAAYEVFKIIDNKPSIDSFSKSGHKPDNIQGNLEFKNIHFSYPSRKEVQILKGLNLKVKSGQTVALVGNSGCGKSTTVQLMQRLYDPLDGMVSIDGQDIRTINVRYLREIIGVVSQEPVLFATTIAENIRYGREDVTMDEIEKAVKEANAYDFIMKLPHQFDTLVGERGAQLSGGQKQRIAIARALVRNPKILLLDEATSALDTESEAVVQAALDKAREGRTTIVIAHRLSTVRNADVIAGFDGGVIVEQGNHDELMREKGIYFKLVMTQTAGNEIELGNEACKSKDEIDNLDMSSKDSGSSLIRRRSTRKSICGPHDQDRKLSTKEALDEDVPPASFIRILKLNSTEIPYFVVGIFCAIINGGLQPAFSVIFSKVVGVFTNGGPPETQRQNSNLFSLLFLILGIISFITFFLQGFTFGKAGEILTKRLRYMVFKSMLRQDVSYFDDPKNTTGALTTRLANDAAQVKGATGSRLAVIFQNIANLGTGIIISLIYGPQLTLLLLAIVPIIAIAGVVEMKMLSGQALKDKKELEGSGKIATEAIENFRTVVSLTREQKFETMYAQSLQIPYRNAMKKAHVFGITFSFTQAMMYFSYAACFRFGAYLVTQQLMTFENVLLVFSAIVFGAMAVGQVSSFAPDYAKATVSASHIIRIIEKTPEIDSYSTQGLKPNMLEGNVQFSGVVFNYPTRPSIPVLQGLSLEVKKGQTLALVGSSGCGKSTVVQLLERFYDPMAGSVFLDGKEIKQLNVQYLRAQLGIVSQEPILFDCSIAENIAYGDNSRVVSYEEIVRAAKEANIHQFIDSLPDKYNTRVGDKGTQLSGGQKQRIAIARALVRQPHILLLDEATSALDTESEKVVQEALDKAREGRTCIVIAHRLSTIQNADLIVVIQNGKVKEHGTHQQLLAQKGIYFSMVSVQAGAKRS

Q: How did the EC50 [1] turn out when `C=CC[C@@H]1/C=C(\C)C[C@H](C)C[C@H](OC)[C@H]2O[C@@](O)(C(=O)C(=O)N3CCCC[C@H]3C(=O)O[C@H](/C(C)=C/[C@@H]3CC[C@@H](O)[C@H](OC)C3)[C@H](C)[C@@H](O)CC1=O)[C@H](C)C[C@@H]2OC` [FK506] was run?
A: Its EC50 is 160 ± 40 nM.

Q: What about the EC50 [2, 6] of the same molecule?
A: The EC50 was 84 ± 30 nM.

Q: And the EC50 [3]?
A: Its EC50 is 140 ± 30 nM.

Q: Which results are given for `Nc1ncnc2c1ncn2[C@@H]1O[C@H](COP(=O)(O)OP(=O)(O)OP(=O)(O)O)[C@@H](O)[C@H]1O` [MgATP]?
A: Km ([1]; read-out: Km(MgATP), WL-Pgp, in the presence of 30 μM verapamil, text says mM range): 0.65 ± 0.07 mM; Km ([2]; read-out: Km(MgATP), WT Pgp, in the presence of 30 μM verapamil, text says mM range): 0.75 ± 0.2 mM; Km [4]: 400 ± 70 µM

Q: Which EC50 [1] does the source give for `CC(C)[C@@H]1NC(=O)[C@H](C)OC(=O)[C@@H](C(C)C)NC(=O)[C@@H](C(C)C)OC(=O)[C@H](C(C)C)NC(=O)[C@H](C)OC(=O)[C@@H](C(C)C)NC(=O)[C@@H](C(C)C)OC(=O)[C@H](C(C)C)NC(=O)[C@H](C)OC(=O)[C@@H](C(C)C)NC(=O)[C@@H](C(C)C)OC1=O` [Valinomycin, valinomycin] here?
A: The EC50 was 340 ± 90 nM.

Q: What about the EC50 ([2]; 50% stimulation (EC50) of ATPase function, text summary across Wt Pgp, W(3Cyto) and WL-Pgp) of the same molecule?
A: The EC50 was ~300 nM.

Q: And the EC50 [2, 6]?
A: The EC50 was 330 ± 80 nM.

Q: What about the EC50 [3] of the same molecule?
A: The EC50 was 230 ± 30 nM.

Q: With `COc1cccc2c1C(=O)c1c(O)c3c(c(O)c1C2=O)C[C@@](O)(C(=O)CO)C[C@@H]3O[C@H]1C[C@H](N)[C@H](O)[C@H](C)O1` [doxorubicin] as the molecule, how does the “Resistance to doxorubicin (relative to Wt Pgp)” value ([5]; yeast expressing mutant B (W(3Cyto))) read?
A: The value was 52 ± 14%.

Q: What about the “Resistance to doxorubicin (relative to Wt Pgp)” value ([5]; yeast expressing mutant C (eight TMD Trps replaced)) of the same molecule?
A: Its value is 43 ± 13%.
